Data reported in article PMC6539525, “Design, Synthesis, and Mechanism of Dihydroartemisinin–Coumarin Hybrids as Potential Anti-Neuroinflammatory Agents” (Molecules, 2019).
Read-outs that look alike come from different tables or passages of the source.

Legend:
A549 cells = experiment: MTT cytotoxicity in A549 cells; type: cell-based; details: Homo sapiens
Protocol: (§1) As the anti-neuroinflammatory agents for cancer patients, all newly synthesized compounds were evaluated in vitro for antitumor activity against human breast cancer cell line MDA-MB-231, colorectal cancer cells HT-29 and HCT-116, and lung cancer cell line A549 by using the standard MTT method, respectively. Doxorubicin (DOX) and DHA were used as the reference standard. Additionally, owing to the rapid proliferation, the tumor cells actually was always in hypoxia condition. Therefore, the in vitro cytotoxicity was evaluated in two different conditions (hypoxia and normoxia).
(§2) After recovery, the cells were cultured in 96-well plates for 24 h at 37 °C in a humidified atmosphere with 95% air and 5% CO2. After treated with different tested compounds, the hypoxia groups were placed in a sealed hypoxia incubator chamber (Stemcell Technologies, Inc., Vancouver, BC, Canada) filled with 5% CO2 and 95% N2 for 24 h, and then transferred to the incubator chamber filled with air for 72 h. On the contrary, the normoxia groups were cultured under air condition for 96h.
(§3) Cancer cells HT-29 (Human Colorectal Adenocarcinoma cell line), MDA-MB-231 (Human Breast Cancer cell line), HCT-116 (Human Colorectal Carcinoma cell line), and A549 (Human Lung Adenocarcinomic cell line) were from ATCC.
(§4) When the adherent cells reached 80% confluence, the culture medium was discarded. The cells were digested by trypsin and collected after centrifugation. The fresh culture medium was gently blown into it to form single-cell suspension. Cell suspension will be diluted to 1.5–3 × 10^4 cells/mL. Each hole of 96-well plates was added 100 μL cell suspension and incubated for 24 h (5% CO2; 37 °C). Then the holes were added different concentrations of tested compounds. The early screening concentration is set to 100 μM, 50 μM, 25 μM, 12.5 μM, and 6.25 μM. Three replicates were made for each concentration of the tested compounds. After the cells were grown for 96h, 20 μL MTT (5 mg/mL) was added to each well and incubated for 4 h. The medium was discarded and each well was added 100 μL DMSO to dissolve the formazan blue. Absorbance was measured at 570 nm with a microplate reader (Synergy-HT, BioTek Instruments, Winooski, VT, USA).
(§5) Hypoxia condition: The cells were treated with different concentration of tested compounds, placed in hypoxia chamber (Catalog Number 27310, Stemcell Technologies, Inc., Vancouver, BC, Canada), and incubated for 24 h ([…]; 37 °C). Then the cells were placed in normoxia condition (5% CO2; 37 °C) and incubated for 72 h.

[1] = tested on: NO release of LPS-induced microglial N9 cells; experiment: Inhibition of NO release in LPS-induced N9 cells (Griess); type: cell-based, murine; details: Mus musculus, 1 μg/mL LPS for 48 h, NO level in medium
Protocol: (§6) The anti-neuroinflammatory activity of DCH was evaluated and then the representative compounds were selected for the further study. […] In addition, in order to exclude the death influence, MTT-IC20 of all the compounds were measured. […] The exact reason was still unclear, but we supposed that it might be related to the homeostasis of cells. The tumor cells actually were always in hypoxia condition, in which DCH could promote the cytotoxic activity against tumor cells. In brief, DCH could reduce the release of NO caused by LPS-induced microglial cells.
(§7) N9 cells, which were in the logarithmic phase, were incubated for 24 h by adherent culture. Subsequently, the medium was changed to new one without serum. The cells were treated with different concentration of tested compounds. After specific time in the LPS condition, the supernatants were collected and analyzed.
The nitrite levels in medium were determined by Griess reaction. The absorbance was measured at 540 nm using a microplate reader.

MDA-MB-231 cells = experiment: MTT cytotoxicity in MDA-MB-231 cells; type: cell-based; details: Homo sapiens
Protocol: as §1, §2, §3, §4, §5

[2] = MTT cytotoxicity in N9 cells; type: cell-based, murine; details: mouse, N9 microglial cells, cytotoxic activity
Protocol: as §6, §4, §7

HT-29 cells = experiment: MTT cytotoxicity in HT-29 cells; type: cell-based, Human; details: Homo sapiens, MTT
Protocol: as §1
as §2, with “On the contrary, the normoxia groups were cultured under air condition for 96h.” left out
as §3
as §4, with “After the cells were grown for 96h, 20 μL MTT (5 mg/mL) was added to each well and incubated for 4 h.” left out, “USA). […]” for “USA).”

HCT-116 cells = experiment: MTT cytotoxicity in HCT-116 cells; type: cell-based; details: Homo sapiens
Protocol: as §1, §2, §3, §4, §5

[3] = A549, hypoxia 24 h then normoxia 72 h, read-out: IC50 A549 Hypoxia
[4] = A549, normoxia 96 h, read-out: IC50 A549 Normoxia
[5] = MDA-MB-231, hypoxia 24 h then normoxia 72 h, read-out: IC50 MDA-MB-231 Hypoxia
[6] = MDA-MB-231, normoxia 96 h, read-out: IC50 MDA-MB-231 Normoxia
[7] = HT-29, hypoxia 24 h then normoxia 72 h, read-out: IC50 HT-29 Hypoxia
[8] = HT-29, normoxia 96 h, read-out: IC50 HT-29 Normoxia
[9] = HCT-116, hypoxia 24 h then normoxia 72 h, read-out: IC50 HCT-116 Hypoxia
[10] = HCT-116, normoxia 96 h, read-out: IC50 HCT-116 Normoxia

SMILES | IC50 (A549 cells; [3]) [µM] | IC50 (A549 cells; [4]) [µM] | IC50 [1] [µM] | IC50 (MDA-MB-231 cells; [5]) [µM] | IC50 (MDA-MB-231 cells; [6]) [µM] | IC20 [2] [µM] | IC50 (HT-29 cells; [7]) [µM] | IC50 (HT-29 cells; [8]) [µM] | IC50 (HCT-116 cells; [9]) [µM] | IC50 (HCT-116 cells; [10]) [µM]
Cc1cc(C)c2c(Cn3cc(CCO[C@H]4O[C@@H]5O[C@@]6(C)CC[C@H]7[C@H](C)CC[C@@H]([C@H]4C)[C@@]57OO6)nn3)cc(=O)oc2c1 [4g, 5,7-dimethyl-4-((4-(2-((10S)-dihydroartemisininoxy)ethyl)-1H-1,2,3-triazol-1-yl)-methyl)-2H-1-chromen-2-one] | > 100 | > 100 | 1.36 | 22.7 | > 100 | > 10 | 9.33 | 13.8 | 25.7 | 34.5
Cc1cc(C)c2c(Cn3cc(CO[C@H]4O[C@@H]5O[C@@]6(C)CC[C@H]7[C@H](C)CC[C@@H]([C@H]4C)[C@@]57OO6)nn3)cc(=O)oc2c1 [3g, 5,7-dimethyl-4-((4-((10S)-dihydroartemisininoxy)methyl-1H-1,2,3-triazol-1-yl)-methyl)-2H-1-chromen-2-one] | > 100 | > 100 | > 10 | > 100 | > 100 | > 10 | 15.9 | 23.9 | > 100 | > 100
Cc1ccc2c(Cn3cc(CO[C@H]4O[C@@H]5O[C@@]6(C)CC[C@H]7[C@H](C)CC[C@@H]([C@H]4C)[C@@]57OO6)nn3)cc(=O)oc2c1 [3h, 7-methyl-4-((4-((10S)-dihydroartemisininoxy)methyl-1H-1,2,3-triazol-1-yl)-methyl)-2H-1-chromen-2-one] | > 100 | > 100 | > 10 | > 100 | > 100 | > 10 | 32 | > 100 | > 100 | > 100
CN(C)c1ccc(O)c2c1C[C@H]1C[C@H]3[C@H](N(C)C)C(O)=C(C(N)=O)C(=O)[C@@]3(O)C(O)=C1C2=O [Minocycline, reference compound] | – | – | > 10 | – | – | > 10 | – | – | – | –
C[C@H]1[C@@H](OCCn2cc(COc3cc(=O)oc4ccccc34)nn2)O[C@@H]2O[C@@]3(C)CC[C@H]4[C@H](C)CC[C@@H]1[C@@]24OO3 [5j] | > 100 | > 100 | 1.59 | 69.4 | 100 | > 10 | 12.2 | 30 | > 100 | 77.2
C[C@H]1[C@@H](OCCc2cn(Cc3cc(=O)oc4cc(O)ccc34)nn2)O[C@@H]2O[C@@]3(C)CC[C@H]4[C@H](C)CC[C@@H]1[C@@]24OO3 [4f, 7-hydroxy-4-((4-(2-((10S)-dihydroartemisininoxy)ethyl)-1H-1,2,3-triazol-1-yl)-methyl)-2H-1-chromen-2-one] | > 100 | > 100 | 2.03 | 78.8 | > 100 | > 10 | 11.3 | 32.3 | > 100 | > 100
Cc1ccc2c(Cn3cc(CCO[C@H]4O[C@@H]5O[C@@]6(C)CC[C@H]7[C@H](C)CC[C@@H]([C@H]4C)[C@@]57OO6)nn3)cc(=O)oc2c1 [4h, 7-methyl-4-((4-(2-((10S)-dihydroartemisininoxy)ethyl)-1H-1,2,3-triazol-1-yl)-methyl)-2H-1-chromen-2-one] | > 100 | > 100 | 5.69 | > 100 | > 100 | > 10 | 56.4 | > 100 | > 100 | > 100
Cc1ccc2oc(=O)cc(Cn3cc(CO[C@H]4O[C@@H]5O[C@@]6(C)CC[C@H]7[C@H](C)CC[C@@H]([C@H]4C)[C@@]57OO6)nn3)c2c1 [3i, 6-methyl-4-((4-((10S)-dihydroartemisininoxy)methyl-1H-1,2,3-triazol-1-yl)-methyl)-2H-1-chromen-2-one] | 62.3 | > 100 | 0.72 | 22.8 | > 100 | > 10 | 8.57 | 16.4 | > 100 | 65
COc1cccc2c1C(=O)c1c(O)c3c(c(O)c1C2=O)C[C@@](O)(C(=O)CO)C[C@@H]3O[C@H]1C[C@H](N)[C@H](O)[C@H](C)O1 [DOX, Doxorubicin, reference compound] | > 2 | > 2 | – | 0.69 | 1.37 | – | < 0.1 | 0.11 | > 2 | 1.29
C[C@H]1[C@@H](O)O[C@@H]2O[C@@]3(C)CC[C@H]4[C@H](C)CC[C@@H]1[C@@]24OO3 [DHA, Dihydroartemisinin] | > 100 | > 100 | 1.58 | 45.9 | > 100 | > 10 | 11.7 | 51.1 | 25.9 | 10.3
C[C@H]1[C@@H](OCc2cn(Cc3cc(=O)oc4cc(O)ccc34)nn2)O[C@@H]2O[C@@]3(C)CC[C@H]4[C@H](C)CC[C@@H]1[C@@]24OO3 [3f, 7-hydroxy-4-((4-((10S)-dihydroartemisininoxy)methyl-1H-1,2,3-triazol-1-yl)-methyl)-2H-1-chromen-2-one] | 98 | > 100 | 0.37 | 63.1 | > 100 | > 10 | 15.5 | 37.8 | 67.7 | > 100
Cc1ccc2oc(=O)cc(Cn3cc(CCO[C@H]4O[C@@H]5O[C@@]6(C)CC[C@H]7[C@H](C)CC[C@@H]([C@H]4C)[C@@]57OO6)nn3)c2c1 [4i, 6-methyl-4-((4-(2-((10S)-dihydroartemisininoxy)ethyl)-1H-1,2,3-triazol-1-yl)-methyl)-2H-1-chromen-2-one] | > 100 | > 100 | > 10 | > 100 | > 100 | > 10 | 39 | > 100 | > 100 | > 100
